In general, LC50 refers to the concentration lethal to half of the exposed cells or organisms.

This is an account of results in patent US10744213B2, “Fluorescent compounds for imaging of blood vessels and blood flow, and an in vivo screen for pro- and anti-angiogenic agents” (COLOSSUS BIOPHARMA CONSULTANTS COMPANY, LIMITED, priority 2017, dated 2020).

Series [1] in a line: Acute toxicity on zebrafish over a five-day regimen. The note with it: in vivo, other: added to the fish culture (immersion), calculated using the Benchmark Dose Software (BMDS). On the set-up: species or system zebrafish (Danio rerio).
Series [2] has as its system zebrafish blood vessels. The experiment in a line: Staining of zebrafish blood vessels. Set-up: species or system zebrafish (Danio rerio). The note with it: in vivo. The source says:
(§1) Another embodiment of the invention comprises contacting live zebrafish, wild type or not, at various development stages, with the fluorescent compounds. To achieve the contact, the fluorescent compounds can in general be formulated as a solution, in DMSO for instance, and added to the fish culture. […] The fluorescent compounds enter the zebrafish vascular system as a result of such treatment, causing the blood vessels to fluoresce upon excitation and the fluorescence image of the blood vessels and the motion of blood flow can be observed with a microscope. The images can also be recorded with an image capturing device such as a camera. […] Further advantage of the current invention, which is in significant contrast to the transgenic zebrafish models, resides in the fact that the fluorescent compounds are exogenously administered and can be allowed to clear out of the test animals when so desired (see Figure I), such as when further procedures are required with the test animals and the fluorescence may interfere. […]

Series [3] has as its system goldfish (Carassius auratus) blood serum. The experiment in a line: Native PAGE of blood serum stained with the fluorescent compound (UV, fluorescence). Format: binding. Conditions: 25 μM stain.
Series [4] relates to cow blood serum. The description is as above. Format: binding. The note with it: 25 μM stain.
Series [5] has as its system zebrafish. Format: in vivo, zebrafish (Danio rerio). Conditions: after staining at 10 μM for 1 hour, continuous culture in RO water.
Text: as §1

Consider `CCOC(=O)c1ccc(C2CC(c3cc4cc(OC)ccc4oc3=O)=NN2c2ccc(C(=O)OCC)cc2)cc1` (centres unmarked) [Diethyl 4,4′-(3-(6-methoxy-2-oxo-2H-chromen-3-yl)-4,5-dihydro-1H-pyrazole-1,5-diyl)dibenzoate], for which, in series [1], the LC50 at 5 days is 272 µM. The “Regular working concentration for staining zebrafish blood vessels” value in series [2] was in the range of 10 to 25 µM.

Turning to `CCOC(=O)c1cn(-c2ccccc2)nc1-c1ccccc1` [Ethyl 1,3-diphenyl-1H-pyrazole-4-carboxylate], the “Staining of serum bands on Native PAGE” value in series [3] and in series [4] was “UV as well as matching blue fluorescence” each time.

`CCOC(=O)c1ccc(N2N=C(c3cc4cc(OC)ccc4oc3=O)CC2c2ccccc2)cc1` (centres unmarked) [Ethyl 4-(3-(6-methoxy-2-oxo-2H-chromen-3-yl)-5-phenyl-4,5-dihydro-1H-pyrazol-1-yl)benzoate]: the “Clearance of the dye (fading of green fluorescence)” value in series [5] was “incremental fading of green fluorescence over time within the first 6 hours”.
